According to patent EP0994104A1, “ARYL (SULFIDE, SULFOXIDE AND SULFONE) DERIVATIVES AND DRUGS CONTAINING THE SAME AS THE ACTIVE INGREDIENT” (ONO PHARMACEUTICAL CO., LTD., priority 1996, dated 1997):
pIC50: −log10 of the molar value.

biological target: T1, gelatinase A (Homo sapiens, UniProt P08253); test: Inhibitory activity against gelatinase A (FITC-gelatin degradation, fluorescence); type: biochemical; settings: progelatinase A purified from human normal skin dermal fibroblasts (HNDF), activated with APMA; 0.05 % FITC-gelatin, 2 hours at 37°C
T1 construct: endogenous in cells; host or cells: human normal skin dermal fibroblasts (HNDF)
T1 sequence (P08253 110-660): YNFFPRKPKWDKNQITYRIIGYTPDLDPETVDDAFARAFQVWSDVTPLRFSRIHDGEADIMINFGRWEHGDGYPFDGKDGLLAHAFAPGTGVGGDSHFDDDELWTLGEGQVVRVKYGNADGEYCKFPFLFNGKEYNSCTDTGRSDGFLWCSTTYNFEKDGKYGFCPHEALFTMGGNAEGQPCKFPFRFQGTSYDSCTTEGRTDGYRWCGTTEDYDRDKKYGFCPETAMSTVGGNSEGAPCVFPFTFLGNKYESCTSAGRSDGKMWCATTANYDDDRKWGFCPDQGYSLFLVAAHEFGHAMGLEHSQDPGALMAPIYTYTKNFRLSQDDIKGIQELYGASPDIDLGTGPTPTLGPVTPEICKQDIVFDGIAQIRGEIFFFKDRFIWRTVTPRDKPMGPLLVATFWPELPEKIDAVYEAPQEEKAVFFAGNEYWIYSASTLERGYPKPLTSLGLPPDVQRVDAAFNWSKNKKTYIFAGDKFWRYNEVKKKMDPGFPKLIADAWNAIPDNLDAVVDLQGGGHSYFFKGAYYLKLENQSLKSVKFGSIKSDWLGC
Description: (1) Inhibitory activity against gelatinase A.
The progelatinase A (7 µl; in assay buffer (90 µl) was purified from human normal skin dermal fibroblasts (HNDF). It was activated by the addition of 10 mM APMA (10 µl) for 1 hour at 37°C. The solution of activated gelatinase A (1 U/tube, 98 µl) was mixed with the solution of various concentrations of the test compound or the solution in which the test compound is not added, (2 µl), and 0.05 % FITC-gelatin (100 µl) and incubated for 2 hours at 37°C. The enzymatic reaction was terminated by the addition of 2 M Tris-HCl (pH 9.5) containing 94.7% ethanol (750 µl). The mixture was stirred and then allowed to stand for 30 minutes at 0°C. The mixture was centrifuged for 30 minutes at 900 x g. Inhibitory activity against gelatinase was determined by measuring the fluorescent intensity in supernatant (Ex = 495 nm, and Em = 520 nm).
In the above experimental method, APMA is p-aminophenylmercuric acetate and FITC is fluorescein isothiocyanate.

Row | SMILES | pIC50
1 | O=C(O)CCS(=O)(=O)c1ccc(C#Cc2ccccc2)cc1 [Example 8(7), 3-[4-(phenylethynyl)phenylsulfonyl]propionic acid] | 6.40
2 | COc1ccc(S(=O)(=O)CC(NC(=O)C(NC(=O)OC(C)(C)C)c2ccccc2)C(=O)NO)cc1 (stereo not drawn) [Example 19(1), N-hydroxy-2-[N-[N-(t-butoxycarbonyl)phenylglycyl]amino]-3-(4-methoxyphenylsulfonyl)propionamide] | 7.96
3 | O=C(O)CCS(=O)(=O)c1ccc(NC(=O)c2ccccc2)cc1 [Example 8(2), 3-[4-(benzoylamino)phenylsulfonyl]propionic acid] | 6.27
4 | Cc1ccc(C#Cc2ccc(S(=O)(=O)CC(C)C(=O)NO)cc2)cc1 (stereo not drawn) [Example 28(3), N-hydroxy-2-methyl-3-[4-(4-tolylethynyl)phenylsulfonyl]propionamide] | 8.54
5 | CC(CS(=O)(=O)c1ccc(-c2cc3ccccc3o2)cc1)C(=O)NO (stereo not drawn) [Example 28(1), N-hydroxy-2-methyl-3-[4-(2-benzofuranyl)phenylsulfonyl]propionamide] | 8.85
6 | CCCCCC#Cc1ccc(S(=O)(=O)CC(C)C(=O)NO)cc1 (stereo not drawn) [Example 28, N-hydroxy-2-methyl-3-[4-(1-heptynyl)phenylsulfonyl]propionamide] | 7.89
